Patent US12378220B2, “WNT signaling pathway inhibitors for treatments of disease” (University of Maryland, Baltimore, priority 2016, dated 2025)

Test system: Wnt/β-catenin pathway
Experiment: dual-luciferase TCF/LEF reporter assay, LiCl-activated, HEK293 cells
Type: cell-based
Details: Homo sapiens, HEK293, 24 h; At 1 μM concentration; remaining Wnt signaling activity; read-out: RLU % (Relative Light Units in reporter gene assays)
Experimental: Lithium chloride (LiCl), which has been previously established as an activator of the Wnt/β-catenin pathway through its direct and indirect effects on GSK3β was used for pathway activation. The inhibition of the Wnt/β-catenin pathway by a compound may be determined after its incubation with cells for 24 hours.
The assay provided herein is a dual-luciferase assay to measure Wnt/β-catenin pathway activation using a TCF/LEF responsive reporter construct similar to that described previously (Thorne et al., 2010).

Row | SMILES | activity at 1 µM [%]
1 | Cc1ccc(-n2c(C)cc(C(=O)NCc3ccccc3)c2C)cc1 [YW1104, N-Benzyl-2,5-dimethyl-1-(p-tolyl)-1H-pyrrole-3-carboxamide] | 92.9
2 | Cc1ccc(-n2c(C)cc(C(=O)Nc3ccccn3)c2C)cc1 [YW1109, 2,5-Dimethyl-N-(pyridin-2-yl)-1-(p-tolyl)-1H-pyrrole-3-carboxamide] | 79.8
3 | Cc1ccc(-n2c(C)cc(C(=O)Nc3nc(-c4ccccc4)cs3)c2C)cc1 [YW1114, 2,5-Dimethyl-N-(4-phenylthiazol-2-yl)-1-(p-tolyl)-1H-pyrrole-3-carboxamide] | 34.6
4 | Cc1ccc(-n2c(C)cc(C(=O)Nc3cnccn3)c2C)cc1 [YW1117-2, 2,5-Dimethyl-N-(pyrazin-2-yl)-1-(p-tolyl)-1H-pyrrole-3-carboxamide] | 113
5 | Cc1ccc(-n2nnc(C(=O)Nc3ccccn3)c2C)cc1 [YW1119, 5-Methyl-N-(pyridin-2-yl)-1-(p-tolyl)-1H-1,2,3-triazole-4-carboxamide] | 106
6 | Cc1ccc(-n2nnc(C(=O)NCc3ccccn3)c2C)cc1 [YW1121, 5-Methyl-N-(pyridin-2-ylmethyl)-1-(p-tolyl)-1H-1,2,3-triazole-4-carboxamide] | 92.1
7 | Cc1ccc(-n2nnc(C(=O)Nc3ccc4c(=O)cc(C)oc4c3)c2C)cc1 [YW1123, 5-Methyl-N-(2-methyl-4-oxo-4H-chromen-7-yl)-1-(p-tolyl)-1H-1,2,3-triazole-4-carboxamide] | 87.6
8 | Cc1ccc(-n2nnc(C(=O)Nc3cc(C)no3)c2C)cc1 [YW1124, 5-Methyl-N-(3-methylisoxazol-5-yl)-1-(p-tolyl)-1H-1,2,3-triazole-4-carboxamide] | 121
9 | Cc1ccc(-n2nnc(C(=O)Nc3nc(-c4ccccc4)c(-c4ccccc4)s3)c2C)cc1 [YW1125, N-(4,5-diphenylthiazol-2-yl)-5-methyl-1-(p-tolyl)-1H-1,2,3-triazole-4-carboxamide] | 55.1
10 | Cc1ccc(-n2nnc(C(=O)Nc3ccc4ccccc4n3)c2C)cc1 [YW1127, 5-Methyl-N-(quinolin-2-yl)-1-(p-tolyl)-1H-1,2,3-triazole-4-carboxamide] | 56.4

Same assay, conditions: Homo sapiens, HEK293; Table 3, values in nM; read-out: IC50

Row | IC50 [nM] | SMILES
11 | 379 | Cc1ccc(-n2c(C)cc(C(=O)Nc3nc(-c4ccccc4)cs3)c2C)cc1 [YW1114, 2,5-Dimethyl-N-(4-phenylthiazol-2-yl)-1-(p-tolyl)-1H-pyrrole-3-carboxamide]

Same assay, conditions: Homo sapiens, HEK293; Table 3, values in μM; read-out: IC50

Row | IC50 [nM] | SMILES
12 | 49000 | Cc1ccc(-n2c(C)cc(C(=O)NCc3ccccc3)c2C)cc1 [YW1104, N-Benzyl-2,5-dimethyl-1-(p-tolyl)-1H-pyrrole-3-carboxamide]
13 | 48000 | Cc1ccc(-n2nnc(C(=O)Nc3cc(C)no3)c2C)cc1 [YW1124, 5-Methyl-N-(3-methylisoxazol-5-yl)-1-(p-tolyl)-1H-1,2,3-triazole-4-carboxamide]

Same assay, conditions: Homo sapiens, HEK293; Table 4, @ 1 μM; read-out: IC50 (nM) or remaining activity at 1 μM: remaining activity

Row | SMILES | activity at 1 µM [%]
14 | Cc1ccc(-n2c(C)cc(C(=O)Nc3ccccn3)c2C)cc1 [Compound 14, 2,5-dimethyl-N-(pyridin-2-yl)-1-(p-tolyl)-1H-pyrrole-3-carboxamide] | 79.8
15 | Cc1ccc(-n2c(C)cc(C(=O)Nc3cnccn3)c2C)cc1 [Compound 15, 2,5-Dimethyl-N-(pyrazin-2-yl)-1-(p-tolyl)-1H-pyrrole-3-carboxamide] | 112
16 | Cc1ccc(-n2c(C)cc(C(=O)NCc3ccccc3)c2C)cc1 [Compound 17, N-benzyl-2,5-dimethyl-1-(p-tolyl)-1H-pyrrole-3-carboxamide] | 93

Same assay, conditions: Homo sapiens, HEK293; Table 4, LiCl-mediated WNT signaling; read-out: IC50 (nM) or remaining activity at 1 μM: IC50

Row | IC50 [nM] | SMILES
17 | 379 | Cc1ccc(-n2c(C)cc(C(=O)Nc3nc(-c4ccccc4)cs3)c2C)cc1 [Compound 16, 2,5-dimethyl-N-(4-phenylthiazol-2-yl)-1-(p-tolyl)-1H-pyrrole-3-carboxamide]

Same assay, conditions: Homo sapiens, HEK293; Table 5, @ 1 μM; read-out: IC50 (nM) or remaining activity at 1 μM: remaining activity

Row | SMILES | activity at 1 µM [%]
18 | Cc1ccc(-n2nnc(C(=O)Nc3ccccn3)c2C)cc1 [Compound 20, 5-Methyl-N-(pyridin-2-yl)-1-(p-tolyl)-1H-1,2,3-triazole-4-carboxamide] | 100

Same assay, conditions: Homo sapiens, HEK293; Table 5; read-out: IC50 (nM) or remaining activity at 1 μM: IC50

Row | IC50 [nM] | SMILES
19 | 273 | Cc1ccc(-n2nnc(C(=O)Nc3cccc(C)n3)c2C)cc1 [Compound 21, 5-Methyl-N-(6-methylpyridin-2-yl)-1-(p-tolyl)-1H-1,2,3-triazole-4-carboxamide]
20 | 1000 | Cc1ccc(-n2nnc(C(=O)Nc3nc(-c4ccccc4)c(-c4ccccc4)s3)c2C)cc1 [Compound 22, N-(4,5-diphenylthiazol-2-yl)-5-methyl-1-(p-tolyl)-1H-1,2,3-triazole-4-carboxamide]
21 | 48000 | Cc1ccc(-n2nnc(C(=O)Nc3cc(C)no3)c2C)cc1 [Compound 24, 5-Methyl-N-(3-methylisoxazol-5-yl)-1-(p-tolyl)-1H-1,2,3-triazole-4-carboxamide]
22 | > 1000 | Cc1ccc(-n2nnc(C(=O)NCc3ccccn3)c2C)cc1 [Compound 25, 5-Methyl-N-(pyridin-2-ylmethyl)-1-(p-tolyl)-1H-1,2,3-triazole-4-carboxamide]
23 | > 1000 | Cc1ccc(-n2nnc(C(=O)Nc3ccc4c(=O)cc(C)oc4c3)c2C)cc1 [Compound 26, 5-Methyl-N-(2-methyl-4-oxo-4H-chromen-7-yl)-1-(p-tolyl)-1H-1,2,3-triazole-4-carboxamide]

Same assay, conditions: Homo sapiens, HEK293; Table 6, @ 1 μM; read-out: IC50 (nM) or remaining activity at 1 μM: remaining activity

Row | SMILES | activity at 1 µM [%]
24 | Cc1ccc(-n2nnc(C(=O)Nc3ccc4ccccc4n3)c2C)cc1 [Compound 27, 5-Methyl-N-(quinolin-2-yl)-1-(p-tolyl)-1H-1,2,3-triazole-4-carboxamide] | 56.4 ± 2

Same assay, conditions: Homo sapiens, HEK293; Table 6; read-out: IC50 (nM) or remaining activity at 1 μM: IC50

Row | SMILES | IC50 [nM]
25 | Cc1ccccc1-n1nnc(C(=O)Nc2ccc3ccccc3n2)c1C [Compound 28, 5-Methyl-N-(quinolin-2-yl)-1-(o-tolyl)-1H-1,2,3-triazole-4-carboxamide] | 6.3
26 | COc1ccccc1-n1nnc(C(=O)Nc2ccc3ccccc3n2)c1C [Compound 35, 1-(2-Methoxyphenyl)-5-methyl-N-(quinolin-2-yl)-1H-1,2,3-triazole-4-carboxamide] | 88

More lines, now with the values ahead:

Row | IC50 [nM] | SMILES
27 | 130 | Cc1ccc(-n2nnc(C(=O)Nc3ccc4ccccc4n3)c2C)c(C)c1 [Compound 32, 1-(2,4-Dimethylphenyl)-5-methyl-N-(quinolin-2-yl)-1H-1,2,3-triazole-4-carboxamide]
28 | 6.5 | Cc1c(C(=O)Nc2ccc3ccccc3n2)nnn1-c1ccccc1F [Compound 33, 1-(2-Fluorophenyl)-5-methyl-N-(quinolin-2-yl)-1H-1,2,3-triazole-4-carboxamide]
29 | 76 | Cc1c(C(=O)Nc2ccc3ccccc3n2)nnn1-c1ccccc1C#N [Compound 34, 1-(2-Cyanophenyl)-5-methyl-N-(quinolin-2-yl)-1H-1,2,3-triazole-4-carboxamide]
30 | 10 | Cc1c(C(=O)Nc2ccc3ccccc3n2)nnn1-c1ccccc1Br [Compound 36, 1-(2-Bromophenyl)-5-methyl-N-(quinolin-2-yl)-1H-1,2,3-triazole-4-carboxamide]
31 | > 1000 | Cc1c(C(=O)Nc2ccc3ccccc3n2)nnn1-c1ccccc1N1CCOCC1 [Compound 37, 5-Methyl-1-(2-morpholinophenyl)-N-(quinolin-2-yl)-1H-1,2,3-triazole-4-carboxamide]
32 | 52000 | Cc1c(C(=O)Nc2ccc3ccccc3n2)nnn1-c1ccccc1-c1ccccc1 [Compound 38, 1-([1,1′-biphenyl]-2-yl)-5-methyl-N-(quinolin-2-yl)-1H-1,2,3-triazole-4-carboxamide]
33 | 814 | CC(=O)c1ccccc1-n1nnc(C(=O)Nc2ccc3ccccc3n2)c1C [Compound 39, 1-(2-Acetylphenyl)-5-methyl-N-(quinolin-2-yl)-1H-1,2,3-triazole-4-carboxamide]
34 | > 100000 | Cc1c(C(=O)Nc2ccc3ccccc3n2)nnn1-c1ccccc1C(N)=O [Compound 40, 1-(2-Carbamoylphenyl)-5-methyl-N-(quinolin-2-yl)-1H-1,2,3-triazole-4-carboxamide]
35 | 5000 | Cc1c(C(=O)Nc2ccc3ccccc3n2)nnn1-c1ccc(F)cc1[N+](=O)[O-] [Compound 41, 1-(4-Fluoro-2-nitrophenyl)-5-methyl-N-(quinolin-2-yl)-1H-1,2,3-triazole-4-carboxamide]
36 | 567 | Cc1cccc(-n2nnc(C(=O)Nc3ccc4ccccc4n3)c2C)c1C [Compound 42, 1-(2,3-Dimethylphenyl)-5-methyl-N-(quinolin-2-yl)-1H-1,2,3-triazole-4-carboxamide]
37 | 4000 | Cc1c(C(=O)Nc2ccc3ccccc3n2)nnn1-c1cccc2ccccc12 [Compound 43, 5-Methyl-1-(naphthalen-1-yl)-N-(quinolin-2-yl)-1H-1,2,3-triazole-4-carboxamide]
38 | 731 | Cc1c(C(=O)Nc2ccc3ccccc3n2)nnn1-c1cccc(Cl)c1 [Compound 44, 1-(3-Chlorophenyl)-5-methyl-N-(quinolin-2-yl)-1H-1,2,3-triazole-4-carboxamide]

Same assay, conditions: Table 7; read-out: IC50

Row | IC50 [nM] | SMILES
39 | 34 | Cc1ccccc1-n1nnc(C(=O)Nc2nc3ccccc3s2)c1C [Compound 29, N-(benzo[d]thiazol-2-yl)-5-methyl-1-(o-tolyl)-1H-1,2,3-triazole-4-carboxamide]
40 | 22000 | Cc1ccccc1-n1nnc(C(=O)Nc2nc(-c3ccccc3)cs2)c1C [Compound 30, 5-Methyl-N-(4-phenylthiazol-2-yl)-1-(o-tolyl)-1H-1,2,3-triazole-4-carboxamide]
41 | 471 | Cc1ccccc1-n1nnc(C(=O)Nc2ccc3ccccc3c2)c1C [Compound 31, 5-Methyl-N-(naphthalen-2-yl)-1-(o-tolyl)-1H-1,2,3-triazole-4-carboxamide]
42 | 47 | CCc1c(C(=O)Nc2ccc3ccccc3n2)nnn1-c1ccccc1F [Compound 45, 5-Ethyl-1-(2-fluorophenyl)-N-(quinolin-2-yl)-1H-1,2,3-triazole-4-carboxamide]
43 | 177 | CC(C)c1c(C(=O)Nc2ccc3ccccc3n2)nnn1-c1ccccc1F [Compound 46, 1-(2-Fluorophenyl)-5-isopropyl-N-(quinolin-2-yl)-1H-1,2,3-triazole-4-carboxamide]
